Laboratory results reported in ChEMBL document CHEMBL4665719, “Development of SKI-349, a dual-targeted inhibitor of sphingosine kinase and microtubule polymerization” (Bioorg Med Chem Lett, 2020).
Calls of active or inactive are those of the source. The rule behind the calls is not given here.

Assays:
[1] = Toxicity in sub-lethal irradiated C57BL/6J mouse xenografted with […] MLL-AF9 cells assessed as Hb level at 5 mg/kg measured after 2 weeks (reference value: 13.4 +/- 0.5 g/dl); type: organism-based; conditions: in vivo, 336 h
[2] = Effect on hematopoiesis in sub-lethal irradiated C57BL/6J mouse xenografted with […] MLL-AF9 cells assessed as CD45.1+/CD34 cells in spleen at 5 mg/kg measured after 6 weeks by flow cytometry analysis (reference value: 90 %); type: ADME, organism-based; conditions: in vivo, 1008 h
[3] = Toxicity in sub-lethal irradiated C57BL/6J mouse xenografted with […] MLL-AF9 cells assessed as Hb level at 1 mg/kg measured after 2 weeks (reference value: 13.4 +/- 0.5 g/dl); type: organism-based; conditions: in vivo, 336 h
[4] = target: T1, Sphingosine kinase 2 (Homo sapiens) (UniProt Q9NRA0); test: Inhibition of SphK2 (unknown origin) catalytic activity at 2 to 5 uM; conditions: dose microM 2-5
T1 sequence (whole entry): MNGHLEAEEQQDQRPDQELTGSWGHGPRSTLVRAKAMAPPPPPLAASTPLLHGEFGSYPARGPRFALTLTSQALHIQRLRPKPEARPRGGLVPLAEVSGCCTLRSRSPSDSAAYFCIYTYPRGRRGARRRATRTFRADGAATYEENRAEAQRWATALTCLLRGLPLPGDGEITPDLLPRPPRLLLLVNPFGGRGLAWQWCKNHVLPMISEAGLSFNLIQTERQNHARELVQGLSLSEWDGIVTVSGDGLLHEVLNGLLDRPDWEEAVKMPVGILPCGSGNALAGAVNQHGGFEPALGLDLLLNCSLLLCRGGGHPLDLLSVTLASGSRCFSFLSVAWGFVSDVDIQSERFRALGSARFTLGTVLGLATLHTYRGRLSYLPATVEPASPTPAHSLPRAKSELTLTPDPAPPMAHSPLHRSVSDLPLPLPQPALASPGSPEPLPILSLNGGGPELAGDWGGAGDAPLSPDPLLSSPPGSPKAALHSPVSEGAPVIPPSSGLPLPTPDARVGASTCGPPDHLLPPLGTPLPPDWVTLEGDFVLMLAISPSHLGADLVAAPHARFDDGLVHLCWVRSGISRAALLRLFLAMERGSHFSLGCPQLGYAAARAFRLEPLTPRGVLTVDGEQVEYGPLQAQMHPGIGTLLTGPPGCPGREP

[5] = Effect on hematopoiesis in sub-lethal irradiated C57BL/6J mouse xenografted with […] MLL-AF9 cells assessed as CD45.1+/CD34 cells in bone marrow at 1 mg/kg measured after 6 weeks by flow cytometry analysis (reference value: 93 %); type: ADME, organism-based; conditions: in vivo, 1008 h
[6] = Effect on hematopoiesis in sub-lethal irradiated C57BL/6J mouse xenografted with […] MLL-AF9 cells assessed as CD45.1+/CD34 cells in spleen at 1 mg/kg measured after 6 weeks by flow cytometry analysis (reference value: 90 %); type: ADME, organism-based; conditions: in vivo, 1008 h
MLL-AF9 = test: Antitumor activity against human MLL-AF9 xenografted in sub-lethal irradiated C57BL/6J mouse assessed as increase in mouse survival at 1 to 5 mg/kg administered every day; type: functional, organism-based; conditions: dose mg/kg 1-5
[7] = Toxicity in sub-lethal irradiated C57BL/6J mouse xenografted with […] MLL-AF9 cells assessed as WBC level at 1 mg/kg measured after 2 weeks (reference value: 6.5 +/- 0.4 10^3/ml); type: organism-based; conditions: in vivo, 336 h
[8] = Toxicity in sub-lethal irradiated C57BL/6J mouse xenografted with […] MLL-AF9 cells assessed as HCT level at 5 mg/kg measured after 2 weeks (reference value: 45 +/- 1.4 %); type: organism-based; conditions: in vivo, 336 h
[9] = target: Cyclin-dependent kinase 1 (Homo sapiens) (UniProt P06493); test: Activation of CDK1 in human HL60/VCR cells assessed as activation of caspase 7 at 300 nM after 24 hrs by Western blot analysis; type: cell-based; conditions: filed as activator
[10] = Antitumor activity against human MLL-AF9 xenografted in sub-lethal irradiated C57BL/6J mouse assessed as increase in mouse survival at 1 mg/kg administered every day relative to control; type: functional; conditions: MLL-AF9, light or radiation study
[11] = target: T2, Sphingosine kinase 1/2 (Homo sapiens) (UniProt Q9NRA0+Q9NYA1); test: Inhibition of SPHK1/SPHK2 in human HL-60 cells assessed as induction of apoptosis by measuring spindle assembly checkpoint arrest at 1 uM after 16 hrs by Western blot analysis; type: cell-based
[12] = target: Cyclin-dependent kinase 1 (Homo sapiens) (UniProt P06493); test: Activation of CDK1 in human HL60/VCR cells assessed as induction of Bcl2 phosphorylation at Ser70 residue at 300 nM after 24 hrs by Western blot analysis; type: cell-based; conditions: filed as activator
[13] = target: T2, Sphingosine kinase 1/2 (Homo sapiens); test: Inhibition of SPHK1/SPHK2 in human HL-60 cells assessed as C16:0 ceramide level assessed per 10^6 cells at 500 nM after 24 hrs by LC-ESI/MS analysis (reference value: 33.5 +/- 4.1 pmol); type: cell-based
[14] = Effect on hematopoiesis in sub-lethal irradiated C57BL/6J mouse xenografted with […] MLL-AF9 cells assessed as CD45.1+/CD34 cells in bone marrow at 5 mg/kg measured after 6 weeks by flow cytometry analysis (reference value: 93 %); type: ADME, organism-based; conditions: in vivo, 1008 h
[15] = Cytotoxicity against human HL60/VCR cells assessed as reduction in cell viability after 48 hrs by MTT assay; type: functional, cell-based
[16] = target: Cyclin-dependent kinase 1 (Homo sapiens) (UniProt P06493); test: Activation of CDK1 in human HL60/VCR cells assessed as induction of Bcl2 phosphorylation at Ser70 residue at 300 nM after 24 hrs in presence of Ro-3306 by Western blot analysis; type: cell-based
[17] = target: T2, Sphingosine kinase 1/2 (Homo sapiens); test: Inhibition of SPHK1/SPHK2 in human HL-60 cells assessed as sphingosine level assessed per 10^6 cells at 500 nM after 24 hrs by LC-ESI/MS analysis (reference value: 18.3 +/- 3.5 pmol); type: cell-based
Tubulin beta = test: Binding affinity to beta tubulin in HEK293 cells assessed as disruption of microtubule polymerization by ITDRF-CETSA assay; type: cell-based, Homo sapiens
[18] = Toxicity in sub-lethal irradiated C57BL/6J mouse xenografted with […] MLL-AF9 cells assessed as HCT level at 1 mg/kg measured after 2 weeks (reference value: 45 +/- 1.4 %); type: organism-based; conditions: in vivo, 336 h
[19] = target: Glycogen synthase kinase-3 alpha (Homo sapiens) (UniProt P49840); test: Inhibition of wild type full length human GSK3A (M1 to S483 residues) expressed in bacterial expression assessed as residual activity at 1 uM by Kinomescan method relative to control
Sphingosine kinase 1 [20] = target: T3, Sphingosine kinase 1 (Homo sapiens, UniProt Q9NYA1); test: Binding affinity to SphK1 in HEK293 cells assessed as induction of thermal stabilization at 1 uM and 51 to 63.2 degreeC by CETSA-based Western blot analysis; type: cell-based
Sphingosine kinase 1 [21] = target: T3, Sphingosine kinase 1; test: Binding affinity to SphK1 in HEK293 cells assessed as direct target engagement incubated for 24 hrs followed by thermal denaturation at 61 degreeC by ITDRF-CETSA assay; type: cell-based
Sphingosine kinase 1 [22] = target: T3, Sphingosine kinase 1; test: Inhibition of recombinant His6x-tagged human SphK1 expressed in HEK293 cells assessed as reduction in S1P formation using D-erythro-sphingosine as substrate by […]

T3 sequence (Q9NYA1 whole entry): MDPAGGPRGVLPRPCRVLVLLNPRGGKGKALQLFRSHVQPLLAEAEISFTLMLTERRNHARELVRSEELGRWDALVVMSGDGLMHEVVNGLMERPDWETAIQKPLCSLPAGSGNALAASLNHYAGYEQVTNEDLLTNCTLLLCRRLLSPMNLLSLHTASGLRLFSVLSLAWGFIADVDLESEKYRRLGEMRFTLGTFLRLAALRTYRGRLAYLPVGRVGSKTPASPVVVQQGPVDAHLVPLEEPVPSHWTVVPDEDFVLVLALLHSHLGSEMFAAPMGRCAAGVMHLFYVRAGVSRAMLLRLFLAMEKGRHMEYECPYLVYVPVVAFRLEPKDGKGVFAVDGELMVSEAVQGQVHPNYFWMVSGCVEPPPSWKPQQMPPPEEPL
T2 sequence (Q9NYA1 whole entry, looked up, one chain of several): as the sequence (Q9NYA1 whole entry) above
Sequence of Cyclin-dependent kinase 1 (Homo sapiens) (P06493 whole entry, looked up): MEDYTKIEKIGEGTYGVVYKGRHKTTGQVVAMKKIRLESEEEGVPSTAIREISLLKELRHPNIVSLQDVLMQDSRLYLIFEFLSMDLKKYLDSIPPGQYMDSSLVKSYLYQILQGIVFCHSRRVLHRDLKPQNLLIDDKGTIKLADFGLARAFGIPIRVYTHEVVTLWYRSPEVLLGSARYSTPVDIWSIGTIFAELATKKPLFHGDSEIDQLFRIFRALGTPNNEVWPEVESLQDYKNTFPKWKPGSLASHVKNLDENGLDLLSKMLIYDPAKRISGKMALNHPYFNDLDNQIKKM
Sequence of Glycogen synthase kinase-3 alpha (Homo sapiens) (P49840 2-483 limits assumed): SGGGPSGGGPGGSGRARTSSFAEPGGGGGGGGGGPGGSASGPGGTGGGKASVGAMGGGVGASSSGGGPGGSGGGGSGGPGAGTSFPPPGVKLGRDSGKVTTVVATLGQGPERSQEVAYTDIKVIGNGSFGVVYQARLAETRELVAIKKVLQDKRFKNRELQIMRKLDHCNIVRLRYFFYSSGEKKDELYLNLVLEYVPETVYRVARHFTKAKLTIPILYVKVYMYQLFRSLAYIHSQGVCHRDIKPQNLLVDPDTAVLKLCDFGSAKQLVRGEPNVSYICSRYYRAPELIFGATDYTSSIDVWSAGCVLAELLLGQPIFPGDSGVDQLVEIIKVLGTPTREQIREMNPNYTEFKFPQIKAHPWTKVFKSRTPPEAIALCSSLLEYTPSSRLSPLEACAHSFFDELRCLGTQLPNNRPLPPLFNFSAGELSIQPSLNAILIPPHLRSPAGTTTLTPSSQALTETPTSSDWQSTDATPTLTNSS

**Q.** For `COc1ccc(Nc2nc(N)c(C(=O)c3ccc(OC)c(OC)c3)s2)cc1`, which Activity [1] is on record?
**A.** 12 g/dL

**Q.** And the Activity [2]?
**A.** 7%

**Q.** And the Activity [3]?
**A.** 12.8 g/dL

**Q.** And the inhibition [4]?
**A.** inactive

**Q.** What about the Activity [5] of the same compound?
**A.** 1%

**Q.** What about the Activity [6] of the same compound?
**A.** 8%

**Q.** What about the Activity (MLL-AF9) of the same compound?
**A.** Active

**Q.** What about the Activity [7] of the same compound?
**A.** 8.7 10^3/ml

**Q.** What about the Activity [8] of the same compound?
**A.** 41%

**Q.** And the Activity [9]?
**A.** Active

**Q.** And the survival at 1 mg/kg [10]?
**A.** 100%

**Q.** What about the Activity [11] of the same compound?
**A.** Active

**Q.** What about the Activity [12] of the same compound?
**A.** Active

**Q.** And the Activity [13]?
**A.** 87 pmol

**Q.** And the Activity [14]?
**A.** 7%

**Q.** What about the IC50 [15] of the same compound?
**A.** 0.023 µM

**Q.** And the Activity [16]?
**A.** inactive

**Q.** And the Activity [17]?
**A.** 27 pmol

**Q.** And the IC50 (Tubulin beta)?
**A.** 0.025 µM

**Q.** And the Activity [18]?
**A.** 44%

**Q.** And the Activity [19]?
**A.** 2.5%

**Q.** What about the Activity (Sphingosine kinase 1 [20]) of the same compound?
**A.** Active

**Q.** What about the IC50 (Sphingosine kinase 1 [21]) of the same compound?
**A.** 0.06 µM

**Q.** What about the IC50 (Sphingosine kinase 1 [22]) of the same compound?
**A.** 30 µM
